# According to patent US20060046278A1, “Methods and kits for determining metabolic stability of compounds” (Qualyst, Inc., priority 2004, published 2006):
# Tests used:
# CYP2D6 [1] = target: T1, CYP2D6 (Homo sapiens, UniProt P10635); conditions: 20 μM substrate; for CL rank order: degree of metabolism by rate of ROS-dependent CL production, reconstituted recombinant CYP2D6, 1 mM NADPH, 37° C.
# Method: Stock solutions of NADPH were freshly prepared before each experiment in buffer. Test compounds were prepared as 20 mM stock solutions in DMSO and diluted to 2 mM in acetonitrile. […] Reactions were performed at 37° C. in 500 μL deep 96-well blocks. Reactions were incubated for 3 min prior to adding NADPH. Aliquots of the reaction mixture (10 μL) were removed at 0 (immediately after the addition of NADPH), 5,10, 20 and 30 min and quenched with 20 μL of acetonitrile and placed in 96-well polypropylene plates. ROS formation was quantified using a chemiluminescence reaction as described below.
# CYP2D6 [2] = target: T1, CYP2D6; conditions: degree of metabolism by parent compound remaining after 10 min; 5 μM substrate, recombinant CYP2D6 microsomes, 1 mM NADPH, 37° C.
# Method: Test compounds were prepared as 20 mM stock solutions in DMSO and diluted to 2 mM in acetonitrile. […] Unless otherwise specified, reaction mixtures consisted of 5 μM substrate, 30 pmol/mL recombinant CYP2D6 microsomes (GenTest™) and 1 mM NADPH prepared in buffer to a final volume of 750 μl. Reactions were performed at 37° C. in 1.2 mL marsh tubes. Reactions were incubated for 3 min prior to adding NADPH. Aliquots of the reaction mixture (100 μL) were removed at 0 (immediately after the addition of NADPH), 5, 10, 20 and 30 min and quenched with 200 μL of acetonitrile (containing 2.5 μM terfenadine). Samples were placed at −20° C. for 1 hr and centrifuged using a Thermo IEC Centra GP8R table top centrifuge (3,000 rpm for 10 min). The supernatant fraction was transferred to 500 μL 96-well blocks for LC-MS analysis.
# LC-MS analysis was performed using a HPLC system consisting of a Shimadzu LC-10AD pump and Perkin Elmer Series 200 Autosampler coupled to an Applied Biosystems Sciex API 3000 triple-quadrapole mass spectrometer. Test compounds were separated on an Agilent ZORBAX® Bonus-RP column (30×2.1 mm, 3.5 μm particle size) maintained at 30° C. […] The column was equilibrated with 100% buffer A for 2 min between each run. The HPLC eluant was directly introduced into the mass spectrometer equipped with a Turbo Ionspray interface operated at 4500 V in the positive mode. […] Compounds were detected by single ion monitoring using the following parameters: declustering potential, 35 V; focusing potential, 200 V; exit potential, 10 V.
# T1 sequence (P10635 whole entry): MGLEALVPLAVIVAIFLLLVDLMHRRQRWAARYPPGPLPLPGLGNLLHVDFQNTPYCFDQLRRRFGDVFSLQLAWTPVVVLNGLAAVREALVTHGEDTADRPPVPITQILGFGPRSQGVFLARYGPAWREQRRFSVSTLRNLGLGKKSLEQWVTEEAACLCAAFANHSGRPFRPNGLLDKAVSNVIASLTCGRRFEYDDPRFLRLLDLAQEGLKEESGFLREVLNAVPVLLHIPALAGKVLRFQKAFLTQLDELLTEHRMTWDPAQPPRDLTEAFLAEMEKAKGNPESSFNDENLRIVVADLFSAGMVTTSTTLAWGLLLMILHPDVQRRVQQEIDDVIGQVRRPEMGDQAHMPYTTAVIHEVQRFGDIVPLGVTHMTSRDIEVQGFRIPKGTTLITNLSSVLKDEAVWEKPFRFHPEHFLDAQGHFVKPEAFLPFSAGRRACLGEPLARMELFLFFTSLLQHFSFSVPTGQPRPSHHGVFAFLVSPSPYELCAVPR
Compound,CL rank order (CYP2D6 [1]),LC-MS rank order (CYP2D6 [2]),"increase in the rate of CL production over background (no substrate) (CYP2D6 [1]; CYP2D6 reaction, 30 min time course)"
C=CCc1ccccc1OCC(O)CNC(C)C (stereo not drawn) [alprenolol],3 (high (a rate of CL production above 800 Units/min)),3 (high (less than 20% of parent compound remaining after 10 min)),
COc1ccc(CCN2CCC(Nc3nc4ccccc4n3Cc3ccc(F)cc3)CC2)cc1 [astemizole],2 (moderate (a rate of CL production between 400 (background) and 800 CL Units/min)),2 (moderate (between 20 and 75% of parent compound remaining after 10 min)),
NC(=O)N1c2ccccc2C=Cc2ccccc21 [carbamazepine],1 (low (a rate of CL production equal to or below that observed in the absence of substrate (400 Units/min))),1 (low (more than 75% of parent compound remaining after 10 min)),
COc1ccc2c(c1)[C@]13CCCC[C@@H]1[C@H](C2)N(C)CC3 [dextromethorphan],2 (moderate (a rate of CL production between 400 (background) and 800 CL Units/min)),2 (moderate (between 20 and 75% of parent compound remaining after 10 min)),approximately two-fold
COc1ccc([C@@H]2Sc3ccccc3N(CCN(C)C)C(=O)[C@@H]2OC(C)=O)cc1 [diltiazem],1 (low (a rate of CL production equal to or below that observed in the absence of substrate (400 Units/min))),1 (low (more than 75% of parent compound remaining after 10 min)),
CCC(C)n1ncn(-c2ccc(N3CCN(c4ccc(OCC5COC(Cn6cncn6)(c6ccc(Cl)cc6Cl)O5)cc4)CC3)cc2)c1=O (stereo not drawn) [itraconazole],1 (low (a rate of CL production equal to or below that observed in the absence of substrate (400 Units/min))),1 (low (more than 75% of parent compound remaining after 10 min)),
O=C(CCCN1CCC(O)(c2cccc(C(F)(F)F)c2)CC1)c1ccc(F)cc1 [trifluperidol],2 (moderate (a rate of CL production between 400 (background) and 800 CL Units/min)),1 (low (more than 75% of parent compound remaining after 10 min)),
